The IC50 is the concentration needed to halve the response being measured. A higher IC50 goes with weaker potency.

Each structure is given as a SMILES string. A value given as a limit tells only on which side of the number the result lay.

The target in this test is GyrB ATPase activity (E. coli GyrA, E. coli GyrB) (Escherichia coli, UniProt P0AES6). Nature of the test: GyrB ATPase inhibition activity assay (ammonium molybdate/malachite green phosphate detection). Conditions: figure quoted may be an average of two or more results. In kind it is biochemical. The protocol:
Compounds may be tested for inhibition of GyrB ATPase activity using an ammonium molybdate/malachite green-based phosphate detection assay (Lanzetta, P. A., L. J. Alvarez, P. S. Reinach, and O. A. Candia, 1979, 100: 95-97). Assays can be performed in multiwell plates in 100 μl reactions containing: 50 mM HEPES buffer pH 7.5, 75 mM ammonium acetate, 5.5 mM magnesium chloride, 0.5 mM ethylenediaminetetraacetic acid, 5% glycerol, 1 mM 1,4-Dithio-DL-threitol, 200 nM bovine serum albumin, 5 μg/ml sheared salmon sperm DNA, 2.5 nM E. coli GyrA, 2.5 nM E. coli GyrB, 250 μM ATP, and compound in dimethylsulfoxide. Reactions can be quenched with 150 μl of ammonium molybdate/malachite green detection reagent containing 1.2 mM malachite green hydrochloride, 8.5 mM ammonium molybdate tetrahydrate, and 1 M hydrochloric acid.
Compounds of the Examples could be expected to have IC50 values of <200 μg/ml in one or both assays described herein above. For Example the following results were obtained in a GyrB ATPase inhibition activity assay substantially similar to the above wherein the figure quoted may be an average of two or more results
Regarding `CO/N=C1\CN(c2ncc(C=O)s2)CCC1NC(=O)c1[nH]c(C)c(Cl)c1Cl` (stereo not drawn) [Example 32, 3,4-Dichloro-N-[(3E)-1-(5-formyl-1,3-thiazol-2-yl)-3-(methoxyimino)piperidin-4-yl]-5-methyl-1H-pyrrole-2-carboxamide], the IC50 was found to be 59.3 nM. For `CCOC(=O)c1sc(N2CCC(NC(=O)c3[nH]c(C)c(Cl)c3Cl)/C(=N/OC)C2)nc1C(=O)NCCOC` (stereo not drawn) [Example 33, Ethyl 2-[(3E)-4-{[(3,4-dichloro-5-methyl-1H-pyrrol-2-yl)carbonyl]amino}-3-(methoxyimino)piperidin-1-yl]-4-{[(2-methoxyethyl)amino]carbonyl}-1,3-thiazole-5-carboxylate], the midpoint of inhibition, the IC50, lay at 36.9 nM. Molecule `CO/N=C1\CN(c2nc(-c3ncnn3C)c(C(=O)OC)s2)CCC1NC(=O)c1[nH]c(C)c(Cl)c1Cl` (stereo not drawn) [Example 34, Methyl 2-[(3E)-4-{[(3,4-dichloro-5-methyl-1H-pyrrol-2-yl)carbonyl]amino}-3-(methoxyimino)piperidin-1-yl]-4-(1-methyl-1H-1,2,4-triazol-5-yl)-1,3-thiazole-5-carboxylate] returned an IC50 of 66.8 nM. As to `COCCn1ccnc1-c1nc(N2CCC(NC(=O)c3[nH]c(C)c(Cl)c3Cl)/C(=N/OC)C2)sc1C(=O)OC` (stereo not drawn) [Example 36, Methyl 2-[(3E)-4-{[(3,4-dichloro-5-methyl-1H-pyrrol-2-yl)carbonyl]amino}-3-(methoxyimino)piperidin-1-yl]-4-[1-(2-methoxyethyl)-1H-imidazol-2-yl]-1,3-thiazole-5-carboxylate], it took 75.5 nM to reach half-maximal inhibition (IC50). Molecule `COC1COC2(CN(c3ncc(C(=O)O)s3)CCC2NC(=O)c2[nH]c(C)c(Cl)c2Cl)OC1` [Example 52, 2-((rel-3R,6r,11R)-11-{[(3,4-Dichloro-5-methyl-1H-pyrrol-2-yl)carbonyl]amino}-3-methoxy-1,5-dioxa-8-azaspiro[5.5]undec-8-yl)-1,3-thiazole-5-carboxylic acid] came in with an IC50 below 9.77 nM.

In turn, `COC1COC2(CN(c3ncc(C(=O)O)s3)CCC2NC(=O)c2[nH]c(C)c(Cl)c2Cl)OC1` [Example 53, 2-((rel-3S,6s,11R)-11-{[(3,4-Dichloro-5-methyl-1H-pyrrol-2-yl)carbonyl]amino}-3-methoxy-1,5-dioxa-8-azaspiro[5.5]undec-8-yl)-1,3-thiazole-5-carboxylic acid] gave a 50% inhibitory concentration (IC50) below 9.77 nM.

In the case of `Cc1[nH]c(C(=O)NC2CCN(c3ncc(C(=O)O)s3)CC23OCC2(CC2)CO3)c(Cl)c1Cl` (stereo not drawn) [Example 55, 2-(11-{[(3,4-Dichloro-5-methyl-1H-pyrrol-2-yl)carbonyl]amino}-5,12-dioxa-8-azadispiro[2.2.5.2]tridec-8-yl)-1,3-thiazole-5-carboxylic acid], the IC50 was below 9.77 nM. The same measure for `C=C1COC2(CN(c3ncc(C(=O)O)s3)CCC2NC(=O)c2[nH]c(C)c(Cl)c2Cl)OC1` (stereo not drawn) [Example 56, 2-(11-{[(3,4-Dichloro-5-methyl-1H-pyrrol-2-yl)carbonyl]amino}-3-methylene-1,5-dioxa-8-azaspiro[5.5]undec-8-yl)-1,3-thiazole-5-carboxylic acid]: below 9.77 nM. On to `Cc1[nH]c(C(=O)NC2CCN(c3ncc(C(=O)O)s3)CC23OCC(C)(C)CO3)c(Cl)c1Cl` (stereo not drawn) [Example 57, 2-(11-{[(3,4-Dichloro-5-methyl-1H-pyrrol-2-yl)carbonyl]amino}-3,3-dimethyl-1,5-dioxa-8-azaspiro[5.5]undec-8-yl)-1,3-thiazole-5-carboxylic acid], for which the IC50 is below 9.77 nM.

With `COC(=O)c1cnc(N2CCC(NC(=O)c3[nH]c(C)c(Cl)c3Cl)C3(C2)OCC(C)(C)CO3)s1` (stereo not drawn) [Example 64, Methyl 2-(11-{[(3,4-dichloro-5-methyl-1H-pyrrol-2-yl)carbonyl]amino}-3,3-dimethyl-1,5-dioxa-8-azaspiro[5.5]undec-8-yl)-1,3-thiazole-5-carboxylate], half-maximal inhibition (IC50) was put at 155 nM.

For `COC(=O)c1cnc(N2CC[C@@H](NC(=O)c3[nH]c(C)c(Cl)c3Cl)[C@@H](n3ccnn3)C2)s1` [Example 70, Methyl 2-[(3S,4R)-4-{[(3,4-dichloro-5-methyl-1H-pyrrol-2-yl)carbonyl]amino}-3-(1H-1,2,3-triazol-1-yl)-1-piperidinyl]-1,3-thiazole-5-carboxylate], inhibition was half-maximal at 12.4 nM (IC50). The same measure for `COC(=O)c1cnc(N2CC[C@@H](NC(=O)c3[nH]c(C)c(Cl)c3Cl)[C@@H](n3cc(Cl)nn3)C2)s1` [Example 71, Methyl 2-[(3S,4R)-3-(4-chloro-1H-1,2,3-triazol-1-yl)-4-[(3,4-dichloro-5-methyl-1H-pyrrole-2-carbonyl)amino]-1-piperidinyl]-1,3-thiazole-5-carboxylate]: 40 nM; for `Cc1[nH]c(C(=O)N[C@@H]2CCN(c3nc4cccc(C(N)=O)c4s3)C[C@@H]2n2ccnn2)c(Cl)c1Cl` [Example 82, 2-[(3S,4R)-4-{[(3,4-Dichloro-5-methyl-1H-pyrrol-2-yl)carbonyl]amino}-3-(1H-1,2,3-triazol-1-yl)piperidin-1-yl]-1,3-benzothiazole-7-carboxamide]: below 9.77 nM. `CCOC(=O)c1sc(N2CC[C@@H](NC(=O)c3[nH]c(C)c(Cl)c3Cl)[C@@H](n3cc(C#N)nn3)C2)nc1C(=O)NCCOC` [Example 92, Ethyl 2-[(3S,4R)-3-(4-cyano-1H-1,2,3-triazol-1-yl)-4-[(3,4-dichloro-5-methyl-1H-pyrrole-2-carbonyl)amino]-1-piperidinyl]-4-(2-methoxyethylcarbamoyl)-1,3-thiazole-5-carboxylate] displayed an IC50 below 9.77 nM. The same measure for `COCCNC(=O)c1nc(N2CC[C@@H](NC(=O)c3[nH]c(C)c(Cl)c3Cl)[C@@H](n3ccnn3)C2)sc1C(=O)O` [Example 100]: below 9.77 nM. Regarding `Cc1[nH]c(C(=O)N[C@@H]2CCN(c3ncc(C(=O)O)s3)C[C@@H]2n2ccnn2)c(Cl)c1Cl` [Example 101, 2-[(3S,4R)-4-{[(3,4-Dichloro-5-methyl-1H-pyrrol-2-yl)carbonyl]amino}-3-(1H-1,2,3-triazol-1-yl)piperidin-1-yl]-1,3-thiazole-5-carboxylic acid], the IC50 is below 9.77 nM. For `Cc1[nH]c(C(=O)N[C@@H]2CCN(c3ncc(C(=O)O)s3)C[C@@H]2N=[N+]=[N-])c(Cl)c1Cl` [Example 102], the IC50 was below 9.77 nM. The same measure for `COCCNC(=O)c1nc(N2CC[C@@H](NC(=O)c3[nH]c(C)c(Cl)c3Cl)[C@@H](N=[N+]=[N-])C2)sc1C(=O)O` [Example 103]: below 9.77 nM; for `COCCNC(=O)c1nc(N2CC[C@@H](NC(=O)c3[nH]c(C)c(Cl)c3Cl)[C@@H](n3cc(C)nn3)C2)sc1C(=O)O` [Example 104]: below 9.77 nM; for `COCC(COC)NC(=O)c1nc(N2CC[C@@H](NC(=O)c3[nH]c(C)c(Cl)c3Cl)[C@@H](n3cc(C)nn3)C2)sc1C(=O)O` [Example 105]: below 9.77 nM. The same measure for `COCC(COC)(COC)NC(=O)c1nc(N2CC[C@@H](NC(=O)c3[nH]c(C)c(Cl)c3Cl)[C@@H](n3cc(C)nn3)C2)sc1C(=O)O` [Example 106]: below 432 nM. The same measure for `Cc1[nH]c(C(=O)N[C@@H]2CCN(c3ncc(C(=O)O)s3)C[C@@H]2n2cc(Cl)nn2)c(Cl)c1Cl` [Example 107]: below 9.77 nM; for `COCCNC(=O)c1nc(N2CC[C@@H](NC(=O)c3[nH]c(C)c(Cl)c3Cl)[C@@H](n3cc(Cl)nn3)C2)sc1C(=O)O` [Example 108, 2-((3S,4R)-3-(4-Chloro-1H-1,2,3-triazol-1-yl)-4-{[(3,4-dichloro-5-methyl-1H-pyrrol-2-yl)carbonyl]amino}piperidin-1-yl)-4-{[(2-methoxyethyl)amino]carbonyl}-1,3-thiazole-5-carboxylic acid]: below 9.77 nM.

In turn, `COCC(COC)NC(=O)c1nc(N2CC[C@@H](NC(=O)c3[nH]c(C)c(Cl)c3Cl)[C@@H](n3cc(Cl)nn3)C2)sc1C(=O)O` [Example 109] registered an IC50 below 9.77 nM. The same measure for `Cc1[nH]c(C(=O)N[C@@H]2CCN(c3nc(C(=O)NC4CC4)c(C(=O)O)s3)C[C@@H]2n2cc(Cl)nn2)c(Cl)c1Cl` [Example 110]: below 9.77 nM. The same measure for `COCC(COC)NC(=O)c1nc(N2CC[C@@H](NC(=O)c3[nH]c(C)c(Cl)c3Cl)[C@@H](n3cc(CC#N)nn3)C2)sc1C(=O)O` [Example 111]: below 9.77 nM; for `COCC(COC)NC(=O)c1nc(N2CC[C@@H](NC(=O)c3[nH]c(C)c(Cl)c3Cl)[C@@H](n3cc(CF)nn3)C2)sc1C(=O)O` [Example 112]: below 9.77 nM; for `COCC(COC)NC(=O)c1nc(N2CC[C@@H](NC(=O)c3[nH]c(C)c(Cl)c3Cl)[C@@H](n3cc(Br)nn3)C2)sc1C(=O)O` [Example 113]: below 9.77 nM.

In turn, `COCC(COC)NC(=O)c1nc(N2CC[C@@H](NC(=O)c3[nH]c(C)c(Cl)c3Cl)[C@@H](n3cc(CO)nn3)C2)sc1C(=O)O` [Example 114] came in with an IC50 below 9.77 nM. `COCCNC(=O)c1nc(N2CC[C@@H](NC(=O)c3[nH]c(C)c(Cl)c3Cl)[C@@H](n3cc(CO)nn3)C2)sc1C(=O)O` [Example 115] registered an IC50 below 9.77 nM.

Regarding `COCc1cn([C@H]2CN(c3nc(C(=O)NC(COC)COC)c(C(=O)O)s3)CC[C@H]2NC(=O)c2[nH]c(C)c(Cl)c2Cl)nn1` [Example 116], the IC50 is below 9.77 nM. `COCCNC(=O)c1nc(N2CC[C@@H](NC(=O)c3[nH]c(C)c(Cl)c3Cl)[C@@H](n3cc(COC)nn3)C2)sc1C(=O)O` [Example 117] showed a half-inhibitory concentration (IC50) below 9.77 nM. The same measure for `COCC(COC)NC(=O)c1nc(N2CC[C@@H](NC(=O)c3[nH]c(C)c(Cl)c3Cl)[C@@H](n3ccnn3)C2)sc1C(=O)O` [Example 118]: below 9.77 nM.

The record behind these values is patent US20100286181A1, “PYRROLE DERIVATIVES WITH ANTIBACTERIAL ACTIVITY” (ASTRAZENECA AB, priority 2006, published 2010).
